Where two headings read alike, the source gives them in different places. Where only a bound is given, the exact number is not on record here.

One assay addresses hJAK2 (Homo sapiens (Human), UniProt O60674). Description: hJAK2 LANCE TR-FRET enzymatic assay. It is filed as biochemical. The following applies: read-out: JAK2 IC50. On the technique in general: In TR-FRET formats the signal depends on donor and acceptor labels being close together.
Another assay has as its target TBK1 (Homo sapiens (Human), UniProt Q9UHD2). Description: TBK1 TR-FRET enzymatic assay.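 Further: phosphorylation of a biotinylated Ser/Thr peptide by purified full-length recombinant TBK1, read by TR-FRET after 240 min at 25 °C, IC50 is the geometric mean of at least four runs.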

Chain of hJAK2 (O60674 whole entry): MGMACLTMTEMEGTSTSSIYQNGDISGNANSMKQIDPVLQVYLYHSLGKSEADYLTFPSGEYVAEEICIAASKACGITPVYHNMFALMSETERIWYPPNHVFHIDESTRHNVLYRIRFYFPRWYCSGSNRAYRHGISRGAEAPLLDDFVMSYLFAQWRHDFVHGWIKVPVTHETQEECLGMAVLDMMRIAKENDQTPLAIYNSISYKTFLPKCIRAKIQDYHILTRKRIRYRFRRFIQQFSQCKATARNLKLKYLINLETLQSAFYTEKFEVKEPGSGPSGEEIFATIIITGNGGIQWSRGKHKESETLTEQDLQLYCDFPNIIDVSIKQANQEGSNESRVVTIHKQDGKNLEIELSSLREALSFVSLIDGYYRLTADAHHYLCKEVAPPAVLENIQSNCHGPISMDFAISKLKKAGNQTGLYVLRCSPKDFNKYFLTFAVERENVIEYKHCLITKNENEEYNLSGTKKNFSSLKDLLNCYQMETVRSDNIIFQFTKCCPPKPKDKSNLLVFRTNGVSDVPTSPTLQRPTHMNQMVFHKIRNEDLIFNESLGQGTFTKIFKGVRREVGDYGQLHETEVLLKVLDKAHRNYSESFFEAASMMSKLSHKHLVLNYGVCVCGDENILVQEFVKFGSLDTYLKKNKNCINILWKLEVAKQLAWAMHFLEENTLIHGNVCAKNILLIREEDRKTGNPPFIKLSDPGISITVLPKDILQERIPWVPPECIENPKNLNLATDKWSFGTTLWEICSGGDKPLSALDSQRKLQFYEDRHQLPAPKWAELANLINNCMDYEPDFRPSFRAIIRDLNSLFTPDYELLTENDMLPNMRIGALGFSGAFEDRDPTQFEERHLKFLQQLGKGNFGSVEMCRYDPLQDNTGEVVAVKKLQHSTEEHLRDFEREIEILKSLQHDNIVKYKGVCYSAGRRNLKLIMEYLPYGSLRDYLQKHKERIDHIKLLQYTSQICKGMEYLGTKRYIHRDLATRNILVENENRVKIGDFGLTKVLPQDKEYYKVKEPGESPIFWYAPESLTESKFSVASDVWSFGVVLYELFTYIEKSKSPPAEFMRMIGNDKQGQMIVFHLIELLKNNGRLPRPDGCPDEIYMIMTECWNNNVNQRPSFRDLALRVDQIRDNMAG
Chain of TBK1 (Q9UHD2 whole entry): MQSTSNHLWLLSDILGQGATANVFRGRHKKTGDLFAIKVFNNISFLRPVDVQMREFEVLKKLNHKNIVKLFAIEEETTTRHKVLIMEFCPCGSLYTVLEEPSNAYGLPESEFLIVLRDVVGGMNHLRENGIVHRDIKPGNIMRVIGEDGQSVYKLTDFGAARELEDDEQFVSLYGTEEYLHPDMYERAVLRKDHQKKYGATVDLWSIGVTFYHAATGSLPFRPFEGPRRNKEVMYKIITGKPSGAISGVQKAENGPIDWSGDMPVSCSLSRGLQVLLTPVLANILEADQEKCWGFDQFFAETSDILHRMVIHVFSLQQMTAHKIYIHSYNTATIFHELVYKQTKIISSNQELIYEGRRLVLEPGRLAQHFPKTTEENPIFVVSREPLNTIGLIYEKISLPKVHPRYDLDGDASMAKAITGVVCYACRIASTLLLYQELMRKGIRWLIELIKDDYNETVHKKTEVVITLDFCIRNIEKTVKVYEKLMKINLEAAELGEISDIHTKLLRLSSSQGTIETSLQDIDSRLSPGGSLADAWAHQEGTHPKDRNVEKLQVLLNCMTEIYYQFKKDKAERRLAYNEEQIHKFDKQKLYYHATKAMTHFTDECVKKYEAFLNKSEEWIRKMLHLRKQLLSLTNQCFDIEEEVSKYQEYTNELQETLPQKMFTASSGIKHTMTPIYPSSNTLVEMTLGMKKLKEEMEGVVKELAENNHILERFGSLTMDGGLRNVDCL

Regarding `N#Cc1cc(-c2ncnc(Nc3ccc(C(N)=O)cc3)n2)ccc1O[C@@H]1CCN(C(=O)CO)C1` [Example 85, (R)-4-((4-(3-cyano-4-((1-(2-hydroxyacetyl)pyrrolidin-3-yl)oxy)phenyl)-1,3,5-triazin-2-yl)amino)benzamide], the IC50 was determined as 678 nM on hJAK2 and 13 nM against TBK1.

Consider `N#Cc1cc(-c2ncnc(Nc3ccc(N4CCN(C5COC5)CC4)cc3)n2)ccc1O[C@H]1CCN(C(=O)c2nnc[nH]2)CC1(F)F` [Example 166, (S)-2-((3,3-difluoro-1-(4H-1,2,4-triazole-3-carbonyl)piperidin-4-yl)oxy)-5-(4-((4-(4-(oxetan-3-yl)piperazin-1-yl)phenyl)amino)-1,3,5-triazin-2-yl)benzonitrile], for which the IC50 on hJAK2 was 53 nM; against TBK1, 2 nM.

Take `N#Cc1cc(-c2ncnc(Nc3ccc(N4CCO[C@@H](CO)C4)cc3)n2)ccc1O[C@H]1CCN(C(=O)CO)C[C@H]1F` [Example 229, 2-(((3R,4S)-3-fluoro-1-(2-hydroxyacetyl)piperidin-4-yl)oxy)-5-(4-((4-((R)-2-(hydroxymethyl)morpholino)phenyl)amino)-1,3,5-triazin-2-yl)benzonitrile]: the 50% inhibitory concentration (IC50) at hJAK2 was determined as 189 nM; against TBK1, 1 nM.

As for `C[C@H](O)C(=O)N1CC[C@@H](Oc2ccc(-c3ncnc(Nc4ccc(N5CCN(C6COC6)[C@H](C)C5)cc4)n3)cc2C#N)C(F)(F)C1` [Example 245, 2-(((R)-3,3-difluoro-1-((S)-2-hydroxypropanoyl)piperidin-4-yl)oxy)-5-(4-((4-((R)-3-methyl-4-(oxetan-3-yl)piperazin-1-yl)phenyl)amino)-1,3,5-triazin-2-yl)benzonitrile], the 50% inhibitory concentration (IC50) at hJAK2 was determined as 228 nM; at TBK1, 17 nM.

With `C[C@H]1CN(C2COC2)CCN1c1ccc(Nc2ncnc(-c3ccc(O[C@H]4CCN(C(=O)c5nnc[nH]5)CC4(F)F)c(C#N)c3)n2)cc1` [Example 260, 2-(((S)-3,3-difluoro-1-(4H-1,2,4-triazole-3-carbonyl)piperidin-4-yl)oxy)-5-(4-((4-((S)-2-methyl-4-(oxetan-3-yl)piperazin-1-yl)phenyl)amino)-1,3,5-triazin-2-yl)benzonitrile], the IC50 on hJAK2 is 42 nM; against TBK1 it was 2 nM.

Regarding `C[C@H]1CN(c2ccc(Nc3ncnc(-c4ccc(O[C@H]5CCN(C(=O)CO)CC5(F)F)c(C#N)c4)n3)cc2)CCN1C1COC1` [Example 261, 2-(((S)-3,3-difluoro-1-(2-hydroxyacetyl)piperidin-4-yl)oxy)-5-(4-((4-((S)-3-methyl-4-(oxetan-3-yl)piperazin-1-yl)phenyl)amino)-1,3,5-triazin-2-yl)benzonitrile], the concentration for half-maximal inhibition (IC50) at hJAK2 stood at 46 nM; at TBK1, 1 nM.

Take `CC(=O)N1CC[C@H](Oc2ccc(-c3ncnc(Nc4ccc(C5CCNCC5)cc4)n3)cc2C#N)C(F)(F)C1` [Example 301, (S)-2-((1-acetyl-3,3-difluoropiperidin-4-yl)oxy)-5-(4-((4-(piperidin-4-yl)phenyl)amino)-1,3,5-triazin-2-yl)benzonitrile]: the half-inhibitory concentration (IC50) was found to be 308 nM at hJAK2 and 3 nM against TBK1.

For `CC(=O)N1CC[C@H](Oc2ccc(-c3ncnc(Nc4ccc(C5CCN(C)CC5)cc4)n3)cc2C#N)C(F)(F)C1` [Example 302, (S)-2-((1-acetyl-3,3-difluoropiperidin-4-yl)oxy)-5-(4-((4-(1-methylpiperidin-4-yl)phenyl)amino)-1,3,5-triazin-2-yl)benzonitrile], the IC50 turned out to be 174 nM on hJAK2 and 2 nM against TBK1.

For the compound `Cc1cc(Nc2ncnc(-c3ccc(O[C@H]4CCN(C=O)CC4(F)F)c(C#N)c3)n2)ccc1C1CCNCC1` [Example 303, (S)-2-((3,3-difluoro-1-formylpiperidin-4-yl)oxy)-5-(4-((3-methyl-4-(piperidin-4-yl)phenyl)amino)-1,3,5-triazin-2-yl)benzonitrile], the IC50 on hJAK2 was determined as 290 nM; at TBK1, 1 nM.

Consider `Cc1cc(Nc2ncnc(-c3ccc(O[C@H]4CCN(C=O)CC4(F)F)c(C#N)c3)n2)ccc1C1CCN(C)CC1` [Example 304, (S)-2-((3,3-difluoro-1-formylpiperidin-4-yl)oxy)-5-(4-((3-methyl-4-(1-methylpiperidin-4-yl)phenyl)amino)-1,3,5-triazin-2-yl)benzonitrile], for which the 50% inhibitory concentration (IC50) at hJAK2 is at least 1000 nM; against TBK1, 2 nM.

For the compound `N#Cc1cc(-c2ncnc(Nc3ccc(C4CCN(C5COC5)CC4)cc3)n2)ccc1O[C@H]1CCN(C(=O)CO)C[C@H]1F` [Example 305, 2-(((3R,4S)-3-fluoro-1-(2-hydroxyacetyl)piperidin-4-yl)oxy)-5-(4-((4-(1-(oxetan-3-yl)piperidin-4-yl)phenyl)amino)-1,3,5-triazin-2-yl)benzonitrile], the 50% inhibitory concentration (IC50) at hJAK2 turned out to be 292 nM; against TBK1 it was 2 nM.

On to `N#Cc1cc(-c2ncnc(Nc3ccc(C4CCN(C5COC5)CC4)cc3)n2)ccc1O[C@H]1CCN(C(=O)c2ccn[nH]2)C[C@H]1F` [Example 318, 2-(((3R,4S)-3-fluoro-1-(1H-pyrazole-5-carbonyl)piperidin-4-yl)oxy)-5-(4-((4-(1-(oxetan-3-yl)piperidin-4-yl)phenyl)amino)-1,3,5-triazin-2-yl)benzonitrile], for which the concentration for half-maximal inhibition (IC50) was at least 1000 nM at hJAK2 and 2 nM at TBK1.

As for `COc1cc(Nc2ncnc(-c3ccc(O[C@H]4CCN(C(=O)CO)C[C@H]4F)c(C#N)c3)n2)ccc1N1CCC(N2CCOCC2)CC1` [Example 325, 2-(((3R,4S)-3-fluoro-1-(2-hydroxyacetyl)piperidin-4-yl)oxy)-5-(4-((3-methoxy-4-(4-morpholinopiperidin-1-yl)phenyl)amino)-1,3,5-triazin-2-yl)benzonitrile], the IC50 on hJAK2 was 28 nM; on TBK1, 2 nM.

Take `C[C@H](O)C(=O)N1CC[C@H](Oc2ccc(-c3ncnc(Nc4ccc(N5C6COCC5C6)cc4)n3)cc2C#N)[C@H](F)C1` [Example 366, 5-(4-((4-(3-oxa-6-azabicyclo[3.1.1]heptan-6-yl)phenyl)amino)-1,3,5-triazin-2-yl)-2-(((3R,4S)-3-fluoro-1-((S)-2-hydroxypropanoyl)piperidin-4-yl)oxy)benzonitrile]: the IC50 worked out at 531 nM at hJAK2 and 3 nM on TBK1 (TBK1 IC50).

On to `N#CCC(=O)N1CC[C@H](Oc2ccc(-c3ncnc(Nc4ccc(N5CCN(C6COC6)CC5)c(F)c4)n3)cc2C#N)[C@H](F)C1` [Example 404, 2-(((3R,4S)-1-(2-cyanoacetyl)-3-fluoropiperidin-4-yl)oxy)-5-(4-((3-fluoro-4-(4-(oxetan-3-yl)piperazin-1-yl)phenyl)amino)-1,3,5-triazin-2-yl)benzonitrile], for which the IC50 at hJAK2 was found to be 457 nM; against TBK1, 3 nM.

Consider `Cc1nnc(C(=O)N2CC[C@H](Oc3ccc(-c4ncnc(Nc5ccc(C6CCN(C)CC6)c(C)c5)n4)cc3C#N)[C@H](F)C2)[nH]1` [Example 490, 2-(((3R,4S)-3-fluoro-1-(5-methyl-4H-1,2,4-triazole-3-carbonyl)piperidin-4-yl)oxy)-5-(4-((3-methyl-4-(1-methylpiperidin-4-yl)phenyl)amino)-1,3,5-triazin-2-yl)benzonitrile], for which the results for the IC50 on hJAK2 and against TBK1 were 78 nM and 3 nM, respectively.

`C[C@H](O)C(=O)N1CC[C@H](Oc2ccc(-c3ncnc(Nc4ccc(N5CCNCC5)cc4)n3)cc2C#N)[C@H](F)C1` [Example 497, 2-(((3R,4S)-3-fluoro-1-((S)-2-hydroxypropanoyl)piperidin-4-yl)oxy)-5-(4-((4-(piperazin-1-yl)phenyl)amino)-1,3,5-triazin-2-yl)benzonitrile]: the half-inhibitory concentration (IC50) on hJAK2 was 358 nM; on TBK1, 1 nM.

Regarding `C[C@H](O)C(=O)N1CC[C@H](Oc2ccc(-c3ncnc(Nc4ccc(N5CCN(C)CC5)cc4)n3)cc2C#N)[C@H](F)C1` [Example 498, 2-(((3R,4S)-3-fluoro-1-((S)-2-hydroxypropanoyl)piperidin-4-yl)oxy)-5-(4-((4-(4-methylpiperazin-1-yl)phenyl)amino)-1,3,5-triazin-2-yl)benzonitrile], the IC50 at hJAK2 is 389 nM; on TBK1, 2 nM.

Consider `C[C@H]1CN(C)CCN1c1ccc(Nc2ncnc(-c3ccc(O[C@H]4CCN(C(=O)CO)C[C@H]4F)c(C#N)c3)n2)cc1` [Example 500, 5-(4-((4-((S)-2,4-dimethylpiperazin-1-yl)phenyl)amino)-1,3,5-triazin-2-yl)-2-(((3R,4S)-3-fluoro-1-(2-hydroxyacetyl)piperidin-4-yl)oxy)benzonitrile], for which the results for the IC50 on hJAK2 and on TBK1 were 182 nM and 2 nM, respectively.

As to `C[C@H](O)C(=O)N1CC[C@H](Oc2ccc(-c3ncnc(Nc4ccc(N5CCN(C)C[C@@H]5C)cc4)n3)cc2C#N)[C@H](F)C1` [Example 501, 5-(4-((4-((S)-2,4-dimethylpiperazin-1-yl)phenyl)amino)-1,3,5-triazin-2-yl)-2-(((3R,4S)-3-fluoro-1-((S)-2-hydroxypropanoyl)piperidin-4-yl)oxy)benzonitrile], the results for the IC50 at hJAK2 and against TBK1 were 457 nM and 2 nM, respectively.

Regarding `COc1cc(Nc2ncnc(-c3ccc(O[C@H]4CCN(C(=O)CO)C[C@H]4F)c(C#N)c3)n2)ccc1N1CCN(C)C[C@@H]1C` [Example 508, 5-(4-((4-((S)-2,4-dimethylpiperazin-1-yl)-3-methoxyphenyl)amino)-1,3,5-triazin-2-yl)-2-(((3R,4S)-3-fluoro-1-(2-hydroxyacetyl)piperidin-4-yl)oxy)benzonitrile], the values for the IC50 on hJAK2 and at TBK1 were 49 nM and 2 nM, respectively.

With `C[C@H]1CN(C)CCN1c1ccc(Nc2ncnc(-c3ccc(O[C@H]4CCN(C(=O)[C@@H](O)CO)C[C@H]4F)c(C#N)c3)n2)cc1` [Example 515, 2-(((3R,4S)-1-((S)-2,3-dihydroxypropanoyl)-3-fluoropiperidin-4-yl)oxy)-5-(4-((4-((S)-2,4-dimethylpiperazin-1-yl)phenyl)amino)-1,3,5-triazin-2-yl)benzonitrile], the half-inhibitory concentration (IC50) came to 355 nM on hJAK2 and 2 nM against TBK1.

Broadly, the IC50 is the concentration at which inhibition is half-maximal.

For the origin of these results see patent US10040781B2, “Tank-binding kinase inhibitor compounds” (Gilead Sciences, Inc., priority 2014, dated 2018).
